Test results reported in US20250213587A1, “ITK INHIBITORS FOR INCREASING TH1 CELL ACTIVITY” (Corvus Pharmaceuticals, Inc., priority 2022, published 2025).

Assays:
ITK [1] = biological target: T1, ITK (Mus musculus, UniProt Q03526); assay: ITK occupancy in mouse splenocytes; type: in vivo; conditions: for receptor occupancy at 50 mg/kg: po
T1 construct: from tissue; host or cells: splenocytes of dosed C57Bl/6 mice
T1 sequence (Q03526 1-625): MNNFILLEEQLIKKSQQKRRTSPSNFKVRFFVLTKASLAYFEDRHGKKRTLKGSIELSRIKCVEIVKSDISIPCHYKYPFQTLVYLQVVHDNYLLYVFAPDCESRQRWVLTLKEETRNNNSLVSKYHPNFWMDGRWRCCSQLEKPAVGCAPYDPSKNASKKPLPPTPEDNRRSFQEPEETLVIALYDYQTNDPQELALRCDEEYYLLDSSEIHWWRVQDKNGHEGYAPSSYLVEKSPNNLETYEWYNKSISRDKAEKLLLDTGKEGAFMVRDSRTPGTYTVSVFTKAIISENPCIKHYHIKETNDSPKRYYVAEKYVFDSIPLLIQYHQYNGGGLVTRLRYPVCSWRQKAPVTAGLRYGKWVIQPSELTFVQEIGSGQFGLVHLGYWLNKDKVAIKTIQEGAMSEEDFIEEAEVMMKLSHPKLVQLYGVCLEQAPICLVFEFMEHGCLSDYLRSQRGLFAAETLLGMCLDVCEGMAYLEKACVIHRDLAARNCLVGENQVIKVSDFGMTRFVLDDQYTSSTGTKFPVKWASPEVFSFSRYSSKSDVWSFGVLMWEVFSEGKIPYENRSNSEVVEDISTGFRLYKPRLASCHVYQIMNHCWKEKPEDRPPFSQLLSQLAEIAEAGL
Protocol: The active site occupancy of ITK by a covalent inhibitor was measured using an irreversibly bound biotinylated probe in an immuno-electrochemiluminescence assay. The binding of an inhibitor and the probe to the ATP binding site is mutually exclusive. In lysates of immune cell lines or immune cells collected from treated animals, the biotinylated probe reacts with free (uninhibited) ITK and is subsequently captured on a streptavidin-coated surface and quantified. The free ITK in each sample is normalized by dividing it by either the lysate protein concentration (BCA protein assay, Pierce) or cell count of the sample. Normalized free ITK values are generated for samples collected prior to and after treatment from which occupancy was calculated using equation 7. Single cell suspensions of Jurkat cells, mouse splenocytes, dog PBMC or purified normal human T cells were prepared. Cell lysis was performed using a buffer containing CelLytic M (Sigma Aldrich) supplemented with protease and phosphatase inhibitors (Pierce). The cell pellet resuspended in lysis buffer was incubated at room temperature for 30 minutes when the lysate was clarified by centrifugation at 20,000×g for 5 minutes at 4° C. A solution of the biotinylated probe CP-613 (27.5 nM final, FIG. 14B) was added to the lysate and incubated with mixing for 60 minutes at room temperature. The lysate mixture (35 μL) was transferred in duplicate to separate wells of a blocked streptavidin-coated plate (Mesoscale Diagnostics) then incubated at room temperature with mixing for 60 minutes. The lysate mixture was removed from the plate and the wells were washed with three rounds of PBS/Tween 20 buffer (Thermo Scientific). Rabbit polyclonal anti-ITK antibody solution (Abcam) was dispensed into the wells of the plate and incubated at room temperature with mixing for 60 minutes. The antibody solution was removed from the wells and washed with three rounds of PBS/Tween 20 buffer. Anti-rabbit antibody (goat) sulfo-TAG (Mesoscale Diagnostics) was dispensed into the wells of the plate then incubated at room temperature with mixing for 60 minutes. The antibody solution was removed from the plate and the wells washed with three rounds of PBS/Tween 20 buffer. Read buffer (Mesoscale Diagnostics) diluted two-fold with water was dispensed into the wells of the plate which was read immediately using an MESO Quickplex SQ 120 instrument.
Male C57Bl/6 mice (6-8 weeks of age) were purchased from Charles River Laboratories. […] At scheduled time points mice were euthanized by asphyxiation by CO2 and their spleens were collected immediately and placed into ice cold PBS (N=4/timepoint). All animal procedures were conducted in accordance with a protocol approved by the IACUC committee at Corvus Pharmaceuticals.

human T cells (PBMC) = assay: T cell activation, Th1 skewing, cell number and viability; type: cell-based
Protocol: Fresh PBMCs from healthy human donors were centrifuged and reconstituted at 0.312×10^6 cells/mL in RPMI 1640 medium+10% heat-inactivated FBS+1× penicillin streptomycin and 100,000 cells/well were distributed into 24 well tissue culture plate. Cells were incubated at 37° C. for 1 hour, followed by the addition of CPI 596 or vehicle. The cells were then incubated at 37° C. for 1 hour, followed by the addition of […] anti CD3 and anti CD28 (both eBioscience). Cells were incubated at 37° C. for 6 days, with supplemental media supplied on day 3. On Day 6, the cells were transferred to a 96 deep well plate, washed, and treated with 50 nM phorbol 12-myristate 13-acetate, 1 μg/mL ionomycin, and 1 μg/mL brefeldin A, and then incubated at 37° C. for 4 hours. The cells were then fixed and permeabilized using eBioscience Fox3/transcription factor staining buffer. Cells were treated with Fc block (BioLegend) and then stained with CD3 BV605, CD45RA PerCP-Cy5.5, Tbet PE, IFNγ AF488, IL-4 APC (BioLegend), CD4 PE-Cy7, cPARP AF700 (BD Biosciences), and CD8 Krome Orange (Beckman Coulter). For flow cytometry, 300,000 cells were acquired on Cytoflex (Beckman Coulter). Data were analyzed using Flowjo software. The percentage of CD4^+ T cells that were positive for IFNγ and IL 4 were reported.

ITK [2] = biological target: T2, ITK (Canis lupus familiaris, UniProt A0A8I3MMK2); assay: ITK occupancy in dog PBMC; type: in vivo; conditions: po, single 5 mg/kg PO
T2 construct: from tissue; host or cells: PBMC of dosed dogs
T2 sequence (A0A8I3MMK2 1-620): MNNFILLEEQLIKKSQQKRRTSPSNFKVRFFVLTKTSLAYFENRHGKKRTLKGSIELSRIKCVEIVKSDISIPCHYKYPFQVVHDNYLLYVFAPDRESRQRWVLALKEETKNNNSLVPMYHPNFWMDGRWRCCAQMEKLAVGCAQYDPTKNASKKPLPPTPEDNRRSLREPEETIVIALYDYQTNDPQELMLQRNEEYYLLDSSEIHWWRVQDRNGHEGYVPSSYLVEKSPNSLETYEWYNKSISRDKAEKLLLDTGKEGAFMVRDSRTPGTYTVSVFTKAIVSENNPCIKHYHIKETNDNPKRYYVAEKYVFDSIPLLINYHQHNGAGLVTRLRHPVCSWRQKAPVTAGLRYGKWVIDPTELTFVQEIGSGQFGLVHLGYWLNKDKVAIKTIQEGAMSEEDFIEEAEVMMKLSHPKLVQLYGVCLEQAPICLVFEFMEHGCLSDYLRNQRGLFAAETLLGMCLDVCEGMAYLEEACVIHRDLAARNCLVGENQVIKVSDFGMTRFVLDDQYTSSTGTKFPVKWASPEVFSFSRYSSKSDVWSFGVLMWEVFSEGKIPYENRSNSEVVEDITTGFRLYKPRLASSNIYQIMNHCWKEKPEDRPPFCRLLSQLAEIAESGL
Protocol: The active site occupancy of ITK by a covalent inhibitor was measured using an irreversibly bound biotinylated probe in an immuno-electrochemiluminescence assay. The binding of an inhibitor and the probe to the ATP binding site is mutually exclusive. In lysates of immune cell lines or immune cells collected from treated animals, the biotinylated probe reacts with free (uninhibited) ITK and is subsequently captured on a streptavidin-coated surface and quantified. The free ITK in each sample is normalized by dividing it by either the lysate protein concentration (BCA protein assay, Pierce) or cell count of the sample. Normalized free ITK values are generated for samples collected prior to and after treatment from which occupancy was calculated using equation 7. Single cell suspensions of Jurkat cells, mouse splenocytes, dog PBMC or purified normal human T cells were prepared. Cell lysis was performed using a buffer containing CelLytic M (Sigma Aldrich) supplemented with protease and phosphatase inhibitors (Pierce). The cell pellet resuspended in lysis buffer was incubated at room temperature for 30 minutes when the lysate was clarified by centrifugation at 20,000×g for 5 minutes at 4° C. […] Read buffer (Mesoscale Diagnostics) diluted two-fold with water was dispensed into the wells of the plate which was read immediately using an MESO Quickplex SQ 120 instrument.

[3] = system: NK cells with anti-CD20 bound Jeko target cells; assay: NK-mediated ADCC; type: cell-based, human; conditions: 1 μM, 18 hours
Protocol: FIGS. 9A-9B show selective Inhibition of ITK preserved NK-mediated ADCC. FIG. 9A: Lymphocyte subsets (5 donors/cell type) were purified from the peripheral blood of 22 healthy donors. The expression of ITK and RLK, relative to the house keeping gene IPO8, were determined by qPCR. FIG. 9B: Peripheral blood NK cells from 7 healthy donors were co-cultured at a 10:1 ratio with anti-CD20 bound target cells (B-cell lymphoma line Jeko) and with inhibitors for 18 hours. Cell lysis was detected by viability dye using flow cytometry. The % dead target cells in samples treated with DMSO were set as the maximum lysis (100%).
NK cells express both ITK and RLK (FIG. 9A). […] Peripheral blood NK cells from 7 healthy donors were co-cultured with an anti-CD20 bound target B-cell line at a ratio of 10:1 for 18 hours in the presence of the inhibitors over a range of concentrations up to 1 μM. Cell lysis was detected by flow cytometry using viability dye staining.

receptor occupancy at 300 mg/kg/day (ITK [1]; mouse, chow formulation, 300 mg/kg/day): 86 to 95%
receptor occupancy at 50 mg/kg (ITK [1]; mouse, 50 mg/kg BID PO, 2 h after dosing): 95%
receptor occupancy at 50 mg/kg (ITK [1]; mouse, 50 mg/kg BID PO, 12 h, prior to second dose): 36%
receptor occupancy at 50 mg/kg (ITK [1]; mouse, single 50 mg/kg PO, 24 h): 17%
receptor occupancy at 50 mg/kg (ITK [1]; mouse, single 50 mg/kg PO, first 8 h): 87 to 98%
ITK occupancy in splenocytes (ITK [1]; single 50 mg/kg PO, first 8 h, 50 mg/kg): > 87%
ITK occupancy (ITK [1]; single dose, 30 to 120 min): essentially complete ITK occupancy
receptor occupancy at 5 mg/kg (ITK [2]; 2 h): 91%
receptor occupancy at 5 mg/kg (ITK [2]; 24 h): 31%
SMILES: C=CC(=O)N1CCCN(C(=O)c2cc(Sc3cnc(NC(=O)C4CC4)s3)c(C)cc2OC)C[C@H]1C [CPI-818]
total T cell proliferation (human T cells (PBMC); 10 μM): abrogates total T cell proliferation
total number of cells and cell viability (human T cells (PBMC); ≥1 μM / high concentrations): reduced the total number of cells while maintaining cell viability
decrease of ADCC [3]: 20%
